From patent USRE33024E, “Bronchodilating 8-hydroxy-5-(1R)-1-hydroxy-2-(N-((1R)-2-(p-methoxyphenyl)-1-methylethyl) -amino)ethyl) carbostyril and intermediates thereof” (Tanabe Seiyaku Co. Ltd., priority 1983, dated 1989) come the findings set out here.

Series [1] concerns antigen-induced bronchoconstriction. In words: Inhibitory effect on antigen-induced bronchoconstriction (Konzett-Rossler method). The format is in vivo, guinea pig (Male Hartley). Particulars: Cavia porcellus, iv; i.v. one minute before ovalbumin challenge (30 μg/kg, i.v.); passively sensitized guinea pigs. The method, then: Inhibitory effect on antigen-induced bronchoconstriction
Male Hartley guinea pigs (body weight: 280-520 g) were passively sensitized by intravenous injection of rabbit antiserum against ovalbumin (0.2 ml/100 g of body weight, PCA titer: ×1000), 24 hours later, the animals were anesthetized with α-chloralose (120 mg/kg, i.v.) and immobilized with gallamine triethiodide (5 mg/kg, i.v.) under artificial respiration. Lung volume changes were measured as overflow of air from the lung by the Konzett-Rossler method (cf. Arch. Exp. Pathol. Pharmakol., 195, 71 (1940)). The test compound was administered intravenously to the animals one minute before said animals were challenged with ovalbumin (30 μg/kg, i.v.). The ED50 (i.e., the dose of the test compound which is necessary to produce 50% reduction of antigen-induced bronchoconstruction) was estimated from the dose-response curve.

The next series in a line: in vivo. Particulars: mouse, iv. The procedure:
(§1) A test compound was dissolved in 5% glucose solution, and the test compound solution (0.2 ml/10 g of body weight) was administered intravenously to Male ddY strain mice (body weight: 25-28 g). The LD50 of the test compound was estimated by the Up and Down method.

For series [2], the system named is isolated tracheal muscle preparations of Male Hartley guinea pigs. In words: Bronchodilating activity: relaxation of histamine-induced contraction of isolated tracheal muscle preparations (Magnus' method). More on the design: species or system guinea pig (Male Hartley). The method, then:
Isolated tracheal muscle preparations of Male Hartley guinea pigs (body weight: 430-645 g) were used to estimate the bronchodilating activity of a test compound according to Magnus' method. The preparation was suspended in an organ bath filled with 20 ml of Tyrode's solution (37° C.), and said solution was continuously bubbled with air. Histamine 2HCl was added to the bath (final concentration; 1×10^-5 g/ml) and the test compound was added thereto about 15 minutes after the addition of histamine 2HCl. Tension changes in the tracheal smooth muscle were recorded isometrically with a force-displacement transducer. Molar conentration of the test compound which produced 50% relaxation of the histamine-induced tracheal contraction were estimated from the concentration-response curve, and the potency ratio of the test compound to Isoproterenol was calculated therefrom.

The test system of another series is Male ddY strain mice. Put plainly: Acute toxicity (Up and Down method). Particulars: mouse, in vivo. The method, then: as §1

A word on the ED50: it is the dose that gives a 50% effect, or the effect in half of the subjects. Usually LD50 stands for the dose expected to kill half of the subjects tested. A higher LD50 goes with a less toxic substance.

Each structure is given as a SMILES string. Where a name gives a salt, the structure may show the parent alone.

For `COc1ccc(C[C@@H](C)NC[C@H](O)c2ccc(O)c3[nH]c(=O)ccc23)cc1` (relative stereo) [Comp. No. 2, 8-hydroxy-5-{1-hydroxy-2-[N-(2-(p-methoxyphenyl)-1-methylethyl)amino]ethyl}carbotyril (α-isomer) hydrochloride], the ED50 in series [1] worked out at 0.00018 mg/kg. In the series “in vivo”, the median lethal dose (LD50) was determined as 91.3 mg/kg.

Regarding `COc1ccc(C[C@@H](C)NC[C@H](O)c2ccc(O)c3[nH]c(=O)ccc23)cc1.Cl` [Comp. No. 1, 8-hydroxy-5-{(1R)-1-hydroxy-2-[N-((1R)-2-(p-methoxyphenyl)-1-methylethyl)amino]ethyl}carbostyril hydrochloride], the “bronchodilating activity, times as strong as Isoproterenol” value in series [2] (isolated tracheal chains of guinea pigs, versus Isoproterenol) was approximately 100 times. Further, in series [2] (isolated tracheal chains of guinea pigs, versus procaterol), the “bronchodilating activity, times as strong as procaterol” value was “about 10 times”. For the same compound, the LD50 in the series “in vivo” was found to be 84.6 mg/kg.

As for `CCC(NC(C)C)C(O)c1ccc(O)c2[nH]c(=O)ccc12` (stereo not shown) [Procaterol, 8-hydroxy-5-[1-hydroxy-2-(isopropylamino)butyl]carbostyril hydrochloride hemihydrate, reference compound], the ED50 in series [1] came to 0.00064 mg/kg. Also, in series [2] (from molar concentration giving 50% relaxation of histamine-induced tracheal contraction, histamine 2HCl 1×10^-5 g/ml, Tyrode's solution 37° C.), the “Potency ratio (to Isoproterenol)” value came to 17. Also, in the series “in vivo”, the 50% lethal dose (LD50) was 70.3 mg/kg and the selectivity ratio was found to be 110000.

Regarding `COc1ccc(CC(C)NCC(O)c2ccc(O)c3[nH]c(=O)ccc23)cc1` (stereo not shown) [compound (I)], the “toxicity (in words)” value with Male ddY strain mice is “considerably low”.
